Measurements: paper PMC2248166, “Quantitative peptide binding motifs for 19 human and mouse MHC class I molecules derived using positional scanning combinatorial peptide libraries” (Immunome Research, 2008)

Biological target: HLA A*3001 (Homo sapiens, UniProt P04439, D140H/D185E/E176W/F33S/G80R/H175R/K168Q/R138E/R41S)
Test: biochemical
Assay type: binding

Sequence | Normalized average relative binding affinity(ARB)
XXXXXXXKX [3064.0149] | 0.12
XXXXXXXLX [3064.0150] | 0.23
XXXXXXXMX [3064.0151] | 0.14
XXXXXXXNX [3064.0152] | 0.54
XXXXXXXPX [3064.0153] | 0.80
XXXXXXXQX [3064.0154] | 0.27

Biological target: HLA A*3201 (Homo sapiens, UniProt P04439, A270S/D101S/D185E/E176V/E277Q/F133L/G103R/G107R/G231S/H175R/I121M/I218V/I322F/K168Q/L105A/L300P/L318F/M331R/P208A/P217A/Q94H/R106L/R138Q/S129P/T104I/T323A/T345S/V100E/V321M/V358M)
Test: biochemical
Assay type: binding

Sequence | Normalized average relative binding affinity(ARB)
XXXXXXXKX [3064.0149] | 0.24
XXXXXXXLX [3064.0150] | 0.29
XXXXXXXMX [3064.0151] | 0.52
XXXXXXXNX [3064.0152] | 0.42
XXXXXXXPX [3064.0153] | 0.87
XXXXXXXQX [3064.0154] | 0.35

Biological target: HLA A*6802 (Homo sapiens, UniProt P04439, A269V/D140Y/D185E/E176V/E277Q/E87N/F33Y/G231S/I121R/I166T/I218V/L180W/L300P/L318F/N151K/P208A/P217A/Q86R/R138H/R169H/S129P/T345S/V36M)
Test: not given
Assay type: binding

Sequence | Normalized average relative binding affinity(ARB)
XXXXXXXKX [3064.0149] | 0.12
XXXXXXXLX [3064.0150] | 0.16
XXXXXXXMX [3064.0151] | 0.16
XXXXXXXNX [3064.0152] | 0.18
XXXXXXXPX [3064.0153] | 0.33
XXXXXXXQX [3064.0154] | 0.14

Biological target: HLA B*0801 (Homo sapiens, UniProt P01889, A93T/A95T/D138N/E176V/E187T/K202T/Q94N/R180D/S35A/V36M/Y33D/Y91F)
Test: biochemical
Assay type: binding

Sequence | Normalized average relative binding affinity(ARB)
XXXXXXXKX [3064.0149] | 0.14
XXXXXXXLX [3064.0150] | 0.11
XXXXXXXMX [3064.0151] | 0.24
XXXXXXXNX [3064.0152] | 0.086
XXXXXXXPX [3064.0153] | 0.73
XXXXXXXQX [3064.0154] | 0.15

Biological target: HLA B*1501 (Homo sapiens, UniProt P01889, A329T/A93T/A95T/C349S/D201E/D98Y/E187L/E204Q/E69M/E70A/K202T/N87E/Q94N/R155S/R180W/S121R/S35A/S48A/V306I/V36M/Y140S/Y91S)
Test: biochemical
Assay type: binding

Sequence | Normalized average relative binding affinity(ARB)
XXXXXXXKX [3064.0149] | 0.24
XXXXXXXLX [3064.0150] | 0.15
XXXXXXXMX [3064.0151] | 0.061
XXXXXXXNX [3064.0152] | 0.12
XXXXXXXPX [3064.0153] | 0.35
XXXXXXXQX [3064.0154] | 0.17

Biological target: HLA B*1503 (Homo sapiens, UniProt P01889, A329T/A93T/A95T/C349S/D201E/D98Y/E187L/E204Q/K202T/N87E/Q94N/R155S/R180L/S121R/S35A/V306I/V36M/Y140S/Y91S)
Test: biochemical
Assay type: binding

Sequence | Normalized average relative binding affinity(ARB)
XXXXXXXKX [3064.0149] | 0.085
XXXXXXXLX [3064.0150] | 0.13
XXXXXXXMX [3064.0151] | 0.14
XXXXXXXNX [3064.0152] | 0.13
XXXXXXXPX [3064.0153] | 0.30
XXXXXXXQX [3064.0154] | 0.19

Biological target: HLA B*3501 (Homo sapiens, UniProt P01889, A329T/A93T/A95T/C349S/D201E/D98Y/E176V/E187L/E204Q/E69T/I218V/K202T/L119I/Q94N/R155S/R180L/S121R/S35A/S48A/T118I/V127L/V306I/V36M/Y140S/Y91F)
Test: not given
Assay type: binding

Sequence | Normalized average relative binding affinity(ARB)
XXXXXXXKX [3064.0149] | 0.36
XXXXXXXLX [3064.0150] | 0.31
XXXXXXXMX [3064.0151] | 0.28
XXXXXXXNX [3064.0152] | 0.14
XXXXXXXPX [3064.0153] | 0.64
XXXXXXXQX [3064.0154] | 0.10

Biological target: HLA B*5101 (Homo sapiens, UniProt P01889, A329T/A93T/A95T/C349S/D138N/D201E/D98Y/E187L/E204Q/E69T/G107R/I218V/K202T/L105A/L119W/N104I/Q94N/R106L/R155S/R180L/S101N/S121T/S35A/S48A/V306I/V36M/Y195H/Y91F)
Test: not given
Assay type: binding

Sequence | Normalized average relative binding affinity(ARB)
XXXXXXXKX [3064.0149] | 0.20
XXXXXXXLX [3064.0150] | 0.86
XXXXXXXMX [3064.0151] | 0.32
XXXXXXXNX [3064.0152] | 0.33
XXXXXXXPX [3064.0153] | 0.51
XXXXXXXQX [3064.0154] | 0.32

Biological target: HLA B*5301 (Homo sapiens, UniProt P01889, A329T/A93T/A95T/C349S/D201E/D98Y/E176V/E187L/E204Q/E69T/G107R/I218V/K202T/L105A/L119I/N104I/Q94N/R106L/R155S/R180L/S101N/S121R/S35A/S48A/T118I/V127L/V306I/V36M/Y140S/Y91F)
Test: not given
Assay type: binding

Sequence | Normalized average relative binding affinity(ARB)
XXXXXXXKX [3064.0149] | 0.78
XXXXXXXLX [3064.0150] | 0.42
XXXXXXXMX [3064.0151] | 0.33
XXXXXXXNX [3064.0152] | 0.21
XXXXXXXPX [3064.0153] | 0.15
XXXXXXXQX [3064.0154] | 0.16

Biological target: HLA B*5401 (Homo sapiens, UniProt P01889, A329T/C349S/D138N/D201E/E176V/E187T/E204Q/E69G/I76V/K202T/L119W/R155S/R180L/S121T/S35A/S48A/V127L/V306I/V36M/Y140L)
Test: not given
Assay type: binding

Sequence | Normalized average relative binding affinity(ARB)
XXXXXXXKX [3064.0149] | 0.099
XXXXXXXLX [3064.0150] | 0.053
XXXXXXXMX [3064.0151] | 0.045
XXXXXXXNX [3064.0152] | 0.076
XXXXXXXPX [3064.0153] | 0.72
XXXXXXXQX [3064.0154] | 0.11

Biological target: HLA B*5801 (Homo sapiens, UniProt P01889, A329T/C349S/D201E/D98Y/E176V/E187L/E204Q/E69T/G107R/I218V/I90N/K202T/L105A/L119I/N104I/N87E/Q89R/Q94S/R106L/R155S/R180L/R86G/S101N/S121R/S35A/S48A/T118I/V127L/V306I/V36M/Y140S/Y91M)
Test: not given
Assay type: binding

Sequence | Normalized average relative binding affinity(ARB)
XXXXXXXKX [3064.0149] | 0.14
XXXXXXXLX [3064.0150] | 0.43
XXXXXXXMX [3064.0151] | 0.18
XXXXXXXNX [3064.0152] | 0.25
XXXXXXXPX [3064.0153] | 0.18
XXXXXXXQX [3064.0154] | 0.39

Biological target: HLA B*5802 (Homo sapiens, UniProt P01889, A329T/C349S/D201E/D98Y/E176V/E187L/E204Q/E69T/G107R/I218V/I90N/K202T/L105A/N104I/N87E/Q89R/Q94S/R106L/R155S/R180L/R86G/S101N/S121W/S35A/S48A/V127L/V306I/V36M/Y140S/Y91M)
Test: not given
Assay type: binding

Sequence | Normalized average relative binding affinity(ARB)
XXXXXXXKX [3064.0149] | 0.15
XXXXXXXLX [3064.0150] | 0.57
XXXXXXXMX [3064.0151] | 0.32
XXXXXXXNX [3064.0152] | 0.27
XXXXXXXPX [3064.0153] | 0.16
XXXXXXXQX [3064.0154] | 0.30

Biological target: H-2 D^b (Mus musculus, UniProt P01899)
Sequence (P01887 21-119): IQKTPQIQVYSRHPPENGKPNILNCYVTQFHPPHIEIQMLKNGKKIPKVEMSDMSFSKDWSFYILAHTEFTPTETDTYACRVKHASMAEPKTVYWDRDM
Sequence (P01899 25-362): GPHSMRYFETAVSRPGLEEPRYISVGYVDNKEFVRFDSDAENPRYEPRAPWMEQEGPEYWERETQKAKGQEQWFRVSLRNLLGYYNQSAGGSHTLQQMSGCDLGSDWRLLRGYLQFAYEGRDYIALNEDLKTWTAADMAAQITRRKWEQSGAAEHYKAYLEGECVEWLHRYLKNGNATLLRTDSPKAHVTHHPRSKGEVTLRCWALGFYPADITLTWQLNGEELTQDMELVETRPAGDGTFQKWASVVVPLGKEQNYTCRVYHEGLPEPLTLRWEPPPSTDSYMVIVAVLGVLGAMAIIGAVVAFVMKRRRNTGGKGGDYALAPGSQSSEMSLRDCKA
Test: not given
Assay type: binding

Sequence | Normalized average relative binding affinity(ARB)
XXXXXXXKX [3064.0149] | 0.076
XXXXXXXLX [3064.0150] | 0.46
XXXXXXXMX [3064.0151] | 0.17
XXXXXXXNX [3064.0152] | 0.099
XXXXXXXPX [3064.0153] | 1.0
XXXXXXXQX [3064.0154] | 0.16

Biological target: H-2 D^d (Mus musculus, UniProt P01900)
Sequence (P01900 whole entry, looked up): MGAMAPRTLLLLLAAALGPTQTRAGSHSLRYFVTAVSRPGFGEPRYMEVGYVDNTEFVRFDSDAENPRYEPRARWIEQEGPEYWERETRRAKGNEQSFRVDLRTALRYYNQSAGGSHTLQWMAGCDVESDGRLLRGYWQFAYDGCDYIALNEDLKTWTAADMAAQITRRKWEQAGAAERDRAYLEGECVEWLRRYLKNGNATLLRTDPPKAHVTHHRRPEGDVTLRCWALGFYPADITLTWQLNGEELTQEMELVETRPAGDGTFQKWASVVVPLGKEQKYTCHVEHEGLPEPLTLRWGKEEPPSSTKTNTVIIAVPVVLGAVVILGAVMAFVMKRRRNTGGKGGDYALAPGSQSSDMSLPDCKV
Test: not given
Assay type: binding

Sequence | Normalized average relative binding affinity(ARB)
XXXXXXXKX [3064.0149] | 0.24
XXXXXXXLX [3064.0150] | 0.80
XXXXXXXMX [3064.0151] | 0.47
XXXXXXXNX [3064.0152] | 0.49
XXXXXXXPX [3064.0153] | 0.73
XXXXXXXQX [3064.0154] | 0.68

Biological target: H-2 K^d (Mus musculus, UniProt P01902)
Sequence (P01887 21-119): as the sequence (P01887 21-119) above
Sequence (P01902 22-368): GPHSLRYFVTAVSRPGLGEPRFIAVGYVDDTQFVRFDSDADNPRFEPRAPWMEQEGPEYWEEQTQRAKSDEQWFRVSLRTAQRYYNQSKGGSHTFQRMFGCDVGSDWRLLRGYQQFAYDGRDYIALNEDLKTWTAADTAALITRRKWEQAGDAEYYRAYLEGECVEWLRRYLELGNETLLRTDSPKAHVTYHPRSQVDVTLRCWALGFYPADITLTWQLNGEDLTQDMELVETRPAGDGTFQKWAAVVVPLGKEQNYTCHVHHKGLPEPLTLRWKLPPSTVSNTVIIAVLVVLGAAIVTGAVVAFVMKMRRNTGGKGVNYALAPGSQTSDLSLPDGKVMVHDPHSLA
Test: not given
Assay type: binding

Sequence | Normalized average relative binding affinity(ARB)
XXXXXXXKX [3064.0149] | 0.23
XXXXXXXLX [3064.0150] | 0.43
XXXXXXXMX [3064.0151] | 0.43
XXXXXXXNX [3064.0152] | 0.40
XXXXXXXPX [3064.0153] | 0.75
XXXXXXXQX [3064.0154] | 0.54

Biological target: H-2 K^k (Mus musculus, UniProt P04223)
Sequence (P01887 21-119): as the sequence (P01887 21-119) above
Sequence (P04223 22-369): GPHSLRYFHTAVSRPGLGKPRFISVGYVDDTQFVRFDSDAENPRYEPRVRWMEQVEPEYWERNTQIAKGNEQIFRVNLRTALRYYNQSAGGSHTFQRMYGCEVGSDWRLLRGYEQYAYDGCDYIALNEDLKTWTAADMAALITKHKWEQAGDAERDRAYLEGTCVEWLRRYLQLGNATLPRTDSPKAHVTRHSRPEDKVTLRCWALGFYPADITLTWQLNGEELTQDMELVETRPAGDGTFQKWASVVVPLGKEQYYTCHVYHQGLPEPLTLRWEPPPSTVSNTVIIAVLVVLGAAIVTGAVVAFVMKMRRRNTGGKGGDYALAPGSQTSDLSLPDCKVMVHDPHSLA
Test: not given
Assay type: binding

Sequence | Normalized average relative binding affinity(ARB)
XXXXXXXKX [3064.0149] | 0.13
XXXXXXXLX [3064.0150] | 0.54
XXXXXXXMX [3064.0151] | 0.49
XXXXXXXNX [3064.0152] | 0.066
XXXXXXXPX [3064.0153] | 0.44
XXXXXXXQX [3064.0154] | 0.19
